Results reported in the NIST ThermoML archive (doi:10.1021/je400407z).

Details: Liquid, Closed cell (Static) method

FC(F)CC(F)(F)F [1,1,1,3,3-pentafluoropropane]
Details | vapor or sublimation pressure [kPa]
260.32 K | 28.52
272.13 K | 50.91
281.15 K | 75.62
293.31 K | 122.98
305.49 K | 192.78
313.62 K | 254.28
321.4 K | 324.38
333.49 K | 467.72
345.16 K | 642.26
351.47 K | 754.32
364 K | 1028.2
377.04 K | 1378.2

C=C(Cl)C(F)(F)F [2-chloro-3,3,3-trifluoro-1-propene]
Details | vapor or sublimation pressure [kPa]
263.25 K | 43.43
264.27 K | 45.2
265.23 K | 47.13
266.27 K | 48.88
267.16 K | 51.02
267.22 K | 50.69
268.2 K | 52.65
269.08 K | 55.2
270.04 K | 57.24
270.94 K | 59.24
270.95 K | 59.34
271.9 K | 61.45
273.85 K | 66.42
274.8 K | 68.69
275.39 K | 70.68
277.03 K | 75.24
277.96 K | 77.86
278.77 K | 80.2
278.99 K | 81.33
279.8 K | 83.72
280.56 K | 85.87
281.62 K | 89.39
282.8 K | 93.36
283.65 K | 95.62
284.51 K | 98.59
285.1 K | 100.84
286.15 K | 103.78
287.18 K | 107.59
288.59 K | 113.2
289.24 K | 115.72
290.31 K | 120.08
292.2 K | 128.29
294.48 K | 138.49
296.12 K | 146.32
297.41 K | 152.85
298.46 K | 158.2
299.53 K | 164.03
300.22 K | 167.73
301.38 K | 174.15
303.03 K | 183.59
304.22 K | 191.32
305.36 K | 198.32
306.37 K | 205.25
307.38 K | 212.61
308.45 K | 219.76
309.44 K | 226.88
311.14 K | 239.23
312.65 K | 250.71
313.32 K | 255.58
314.65 K | 265.41
315.41 K | 271.67
316.41 K | 279.99
317.54 K | 288.86
318.54 K | 296.49
319.54 K | 305.35
320.2 K | 312.84
321.51 K | 323.9
322.28 K | 330.9
322.39 K | 331.79
323.27 K | 340.55
324.4 K | 351.13
325.16 K | 359.71
326.17 K | 370.1
327.54 K | 383.61
328.16 K | 390.36
329.38 K | 402.72
330.27 K | 412.59
331.36 K | 424.58
332.28 K | 434.81
333.1 K | 444.59
333.37 K | 447.55
334.34 K | 462.26
335.18 K | 468.47
336.2 K | 480.83
337.33 K | 494.73
338.3 K | 506.41
339.24 K | 518.13
340.43 K | 533.53
341.35 K | 545.17
342.25 K | 558.82
342.53 K | 561.23
344.38 K | 589.61
345.78 K | 613.34
346.77 K | 629.58
347.88 K | 646.33
348.77 K | 660.14
349.98 K | 679.92
350.86 K | 695.77
352.84 K | 728.61
354.89 K | 762.84
356.87 K | 799.73
358.89 K | 838.22
360.78 K | 874.39
362.63 K | 916.57
364.64 K | 957.2
366.88 K | 1003.7
368.89 K | 1047.8
370.88 K | 1093
372.9 K | 1138.9
